Results from the supplement of paper PMC5908809.

Experiments:
[1] = system: normal primary NK cells, pool 2 (3 donors) (IL-2 2.5 ng/mL); experiment: drug sensitivity score (DSS) (DSS units); higher = more sensitive; extreme values may be limits of the assay; settings: 72 h
[2] = system: NK-YS (IL-2 2.5 ng/mL); experiment: as above; settings: 72 h
[3] = system: NK-92 (IL-2 2.5 ng/mL); experiment: as above; settings: 72 h
[4] = system: KAI3 (IL-2 2.5 ng/mL); experiment: as above; settings: 72 h
[5] = system: KHYG-1 (IL-2 2.5 ng/mL); experiment: as above; settings: 72 h
[6] = system: SNK-6 (IL-2 2.5 ng/mL); experiment: as above; settings: 72 h
[7] = system: YT (IL-2 2.5 ng/mL); experiment: as above; settings: 72 h
[8] = system: normal primary NK cells, pool 1 (3 donors) (IL-2 2.5 ng/mL); experiment: as above; settings: 72 h
[9] = system: NKL (IL-2 2.5 ng/mL); experiment: as above; settings: 72 h
[10] = system: normal primary NK cells, pool 3 (3 donors) (IL-2 2.5 ng/mL); experiment: as above; settings: 72 h
[11] = system: DERL-7 (IL-2 2.5 ng/mL); experiment: as above; settings: 72 h
[12] = system: IMC-1 (IL-2 20 ng/mL); experiment: as above; settings: 72 h
[13] = system: normal primary NK cells, pool 1 (3 donors), resting (IL-2 0 ng/mL); experiment: as above; settings: 72 h
[14] = system: normal primary NK cells, pool 2 (3 donors) (IL-2 2.5 ng/mL); experiment: percent inhibition of viability; higher = more inhibition; settings: 72 h
[15] = system: NK-YS (IL-2 2.5 ng/mL); experiment: as above; settings: 72 h
[16] = system: NK-92 (IL-2 2.5 ng/mL); experiment: as above; settings: 72 h
[17] = system: KAI3 (IL-2 2.5 ng/mL); experiment: as above; settings: 72 h
[18] = system: KHYG-1 (IL-2 2.5 ng/mL); experiment: as above; settings: 72 h
[19] = system: SNK-6 (IL-2 2.5 ng/mL); experiment: as above; settings: 72 h
[20] = system: YT (IL-2 2.5 ng/mL); experiment: as above; settings: 72 h
[21] = system: normal primary NK cells, pool 1 (3 donors) (IL-2 2.5 ng/mL); experiment: as above; settings: 72 h
[22] = system: NKL (IL-2 2.5 ng/mL); experiment: as above; settings: 72 h
[23] = system: normal primary NK cells, pool 3 (3 donors) (IL-2 2.5 ng/mL); experiment: as above; settings: 72 h
[24] = system: DERL-7 (IL-2 2.5 ng/mL); experiment: as above; settings: 72 h
[25] = system: IMC-1 (IL-2 20 ng/mL); experiment: as above; settings: 72 h
[26] = system: normal primary NK cells, pool 1 (3 donors), resting (IL-2 0 ng/mL); experiment: as above; settings: 72 h
[27] = system: normal NK cells expanded with K562-aAPC; experiment: as above; settings: 72 h, IL-2 2.5 ng/mL
Procedure: (§1)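 Drug sensitivity and resistance testing on K562-aAPC-expanded normal NK cells: 5 concentrations (10-fold steps over a 10,000-fold range), 72 h at 37 °C, viability by CellTiter-Glo normalised to DMSO and benzethonium chloride controls; DSS from the fitted curve.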

[28] = system: normal NK cells expanded with K562-aAPC; experiment: drug sensitivity score (DSS) (DSS units); higher = more sensitive; extreme values may be limits of the assay; settings: 72 h; IL-2 2.5 ng/mL
Procedure: as §1

Cc1ccc2nc(CN(CCN(Cc3nc4ccc(C)cc4[nH]3)Cc3nc4ccc(C)cc4[nH]3)Cc3nc4ccc(C)cc4[nH]3)[nH]c2c1 (max concentration tested 50000 nM)
Settings	drug sensitivity score
[1]	3.42
[2]	8.57
[3]	12.5
[4]	13.3
[5]	10.5
[6]	4.89
[7]	9.85
[8]	9.43
[9]	15.5
[10]	2.31
[11]	9.01
[12]	4.41
[13]	9.11
[28]	8.41

percent inhibition of viability [%]
Settings	5 nM	50 nM	500 nM	5000 nM	50000 nM
[14]	-1.51	3.91	12.8	12.1	37.9
[15]	-2.1	-1.56	2.07	18.1	107
[16]	-27.1	-13.1	15.2	54.5	110
[17]	-0.45	-7.54	8.33	62.9	110
[18]	-9.01	-6.49	-6.15	36.3	108
[19]	-21	-28.4	-6.29	-12.1	101
[20]	-8.1	-15.1	-6.51	29.4	108
[21]	-9.49	4.67	4.72	25.6	101
[22]	2.31	-9.86	19.8	69.1	107
[23]	-5.58	-1.41	10.2	5.2	32.2
[24]	2.65	-5.22	4.05	22	101
[25]	-6.83	-3.4	-4.29	10.4	51.3
[26]	-25.9	1.32	12.4	24.8	99.8
[27]	-4.88	-8.25	-3.73	17.5	100

Cc1cc(C(=O)NOCCO)c(Nc2ccc(I)cc2F)n(C)c1=O [AZD-8330] (max concentration tested 10000 nM)
Settings	drug sensitivity score
[1]	0
[2]	1.5
[3]	0
[4]	0
[5]	20.8
[6]	0
[7]	0
[8]	1.33
[9]	24.7
[10]	0
[11]	15.5
[12]	0
[13]	3.07
[28]	0

percent inhibition of viability [%]
Settings	1 nM	10 nM	100 nM	1000 nM	10000 nM
[14]	-6.21	-3.9	6.25	1.91	6.61
[15]	1.92	6.63	7.16	17	13.5
[16]	-20.4	-31.8	-23.9	-11.1	-34
[17]	6.6	16.3	20.9	25.5	21.5
[18]	4.36	28.4	50.2	60.9	59.9
[19]	-15.8	-23.2	-25.2	-18.2	-8.48
[20]	1.8	1.88	-1.55	5.74	3.13
[21]	1.16	3.34	2.94	11.4	20.3
[22]	9.59	36	58.2	70.4	65
[23]	-7.05	-12	-3.49	3.69	8.96
[24]	10.5	19.5	39.8	44.6	49.1
[25]	-6.12	-4.24	-7.8	-3.57	1.54
[26]	-12.3	-10.7	-6.76	10.4	33.8
[27]	0.89	-5.14	2.35	1.49	5.67

COc1ccc(C[C@H](NC(=O)[C@H](C)NC(=O)CN2CCOCC2)C(=O)N[C@@H](Cc2ccccc2)C(=O)C2(C)CO2)cc1 (stereo in doubt) [ONX-0914] (max concentration tested 10000 nM)
Settings	drug sensitivity score
[1]	30.7
[2]	28.6
[3]	31.6
[4]	32.9
[5]	22.3
[6]	25.6
[7]	26.3
[8]	30.5
[9]	30.9
[10]	26.7
[11]	32.7
[12]	21.7
[13]	31.9
[28]	24.8

percent inhibition of viability [%]
Settings	1 nM	10 nM	100 nM	1000 nM	10000 nM
[14]	-9.54	18.2	87.2	99.6	99.8
[15]	13.1	15.9	75	105	102
[16]	-8.67	15.8	93.1	106	102
[17]	12.7	28.5	93.7	106	102
[18]	-0.77	1.13	29.1	104	101
[19]	-1.52	17.8	58.1	101	101
[20]	-1.7	3.7	69.5	104	101
[21]	-4.25	8.47	92.5	100	100
[22]	10.8	1.76	103	106	102
[23]	-6.21	2.14	73.6	99.9	100
[24]	6.02	28.7	92.2	101	101
[25]	2.14	-0.04	24.1	100	101
[26]	-25.3	21.3	91	96.4	97.3
[27]	6.48	5.84	57.1	101	101

CC(=O)c1c(C)c2cnc(Nc3ccc(N4CCNCC4)cn3)nc2n(C2CCCC2)c1=O [Palbociclib] (max concentration tested 10000 nM)
Settings	drug sensitivity score
[1]	4
[2]	9.09
[3]	5.65
[4]	3.18
[5]	16.8
[6]	0
[7]	6.16
[8]	3.66
[9]	9.37
[10]	3.41
[11]	8.89
[12]	6.58
[13]	2.9
[28]	7.9

percent inhibition of viability [%]
Settings	1 nM	10 nM	100 nM	1000 nM	10000 nM
[14]	-10.6	-5.61	1.26	2.75	66.1
[15]	2.65	4.48	17.3	37.1	61.5
[16]	6.01	-5.34	15.5	12.9	65.7
[17]	-3.55	-10.6	-0.36	0.62	57.6
[18]	-0.2	2.78	14.7	81.5	91.9
[19]	27.7	15.6	28.3	9.56	32.5
[20]	2.18	0.66	6.83	31.3	37
[21]	-11.6	-7.3	-7.79	-6.34	74.7
[22]	-10.3	-8.16	-14.5	25	104
[23]	-13.2	-11.6	6.3	-3.24	67
[24]	-8.16	4.2	8.47	32.2	90.9
[25]	-2.52	-7.06	-2.86	6.43	101
[26]	6.42	-17.5	-3.52	-17	68.2
[27]	1.29	2.27	11	16.3	94.1
